A word on the inhibition: it is the drop in the measured response relative to a control, in per cent.

These results are taken from ChEMBL document CHEMBL4052680, “Semi-quantitative models for identifying potent and selective transthyretin amyloidogenesis inhibitors” (Bioorg Med Chem Lett, 2017).

The species named for assay [1] is Rattus norvegicus. Put plainly: Displacement of [125I]-triiodothyronine from thyroid hormone receptor in rat liver membrane homogenates incubated for 18 hrs by scintillation counting method. The class given is cell membranes. Further details: concentration or dose not given beside the values. The following applies: concentration not given here. Background: In a radioligand displacement assay an active substance lowers the binding of a labelled ligand.

The species entered for assay [2] is Rattus norvegicus. Put plainly: Displacement of [125I]-triiodothyronine from thyroid hormone receptor in rat liver membrane homogenates assessed as relative T3 displacement incubated for 18 hrs by scintillation counting method relative to control. Type of assay: cell membranes.

For `COc1cccc(OC)c1/C=C/c1cc(Br)c(N)c(Br)c1`, the inhibition in assay [1] amounted to 2%. The relative binding affinity (RBA) in assay [2] is 0.02.

With `Cc1ccccc1/C=C/c1cc(Br)c(O)c(Br)c1`, the inhibition in assay [1] came to 44%. The relative binding affinity (RBA) in assay [2] is 0.44.

In turn, `Oc1ccccc1/C=C/c1cc(Br)c(O)c(Br)c1` yielded an inhibition in assay [1] of 22%. In addition, the relative binding affinity (RBA) in assay [2] was found to be 0.22.

Consider `Oc1c(Br)cc(CCc2cccc(F)c2)cc1Br`, for which the inhibition in assay [1] was 19%. Further, in assay [2], the relative binding affinity (RBA) worked out at 0.19.

`Cc1cc(Oc2cccc3oc4ccccc4c23)cc(C)c1O`: the inhibition in assay [1] turned out to be 0%. For the same compound, the relative binding affinity (RBA) in assay [2] came out at 0.

In the case of `COc1ccccc1/C=C/c1cc(Br)c(O)c(Br)c1`, the inhibition in assay [1] came to 32%. Besides, the relative binding affinity (RBA) in assay [2] is 0.32.

In the case of `COc1cccc(OC)c1/C=C/c1cc(Br)c(O)c(Br)c1`, the inhibition in assay [1] was 0%. In addition, in assay [2], the relative binding affinity (RBA) turned out to be 0.

In turn, `Oc1c(Br)cc(/C=C/c2ccccc2C(F)(F)F)cc1Br` gave an inhibition in assay [1] of 69%. Further, the relative binding affinity (RBA) in assay [2] worked out at 0.69.

Consider `Cc1cc(C)cc(Oc2cccc3oc4ccccc4c23)c1`, for which, in assay [1], the inhibition turned out to be 0%. Further, the relative binding affinity (RBA) in assay [2] is 0.

In turn, `COc1ccccc1CCc1cc(Br)c(O)c(Br)c1` returned an inhibition in assay [1] of 0%. The relative binding affinity (RBA) in assay [2] amounted to 0.

Compound `O=C(O)c1ccc2nc(-c3cc(Cl)cc(Cl)c3)oc2c1` displayed an inhibition in assay [1] of 0%. The relative binding affinity (RBA) in assay [2] amounted to 0.

In assay [1], `Nc1ccccc1/C=C/c1cc(Br)c(O)c(Br)c1` showed an inhibition of 15%. Besides, in assay [2], the relative binding affinity (RBA) came out at 0.15.

With `COc1cccc(/C=C/c2cc(Br)c(O)c(Br)c2)c1`, the inhibition in assay [1] is 0%. The relative binding affinity (RBA) in assay [2] stood at 0.

Consider `Cc1cc(-c2cccc3oc4ccccc4c23)cc(C)c1O`, for which the inhibition in assay [1] is 0%. In addition, the relative binding affinity (RBA) in assay [2] was determined as 0.

On to `Oc1c(Br)cc(-c2nc3cccc(Cl)c3o2)cc1Br`, for which the inhibition in assay [1] amounted to 62%. Besides, in assay [2], the relative binding affinity (RBA) amounted to 0.62.

In assay [1], `Cc1cccc(C)c1/C=C/c1cc(Br)c(O)c(Br)c1` gave an inhibition of 42%. Besides, the relative binding affinity (RBA) in assay [2] stood at 0.42.

With `COc1ccccc1C(=O)Nc1cc(Br)cc(Br)c1`, the inhibition in assay [1] worked out at 10%. Moreover, the relative binding affinity (RBA) in assay [2] is 0.1.

The compound `COc1cccc(OC)c1CCc1cc(Br)c(O)c(Br)c1` had an inhibition in assay [1] of 0%. In addition, the relative binding affinity (RBA) in assay [2] came to 0.

With `Oc1cccc(/C=C/c2cc(Br)c(O)c(Br)c2)c1`, the inhibition in assay [1] came to 64%. In assay [2], the relative binding affinity (RBA) came to 0.64.

Take `Cc1cc(-c2nc3c([N+](=O)[O-])cccc3o2)cc(C)c1O`: in assay [1], the inhibition was 16%. Moreover, the relative binding affinity (RBA) in assay [2] worked out at 0.16.

`Cc1cccc(CCc2cc(Br)c(O)c(Br)c2)c1` displayed an inhibition in assay [1] of 4%. For the same compound, the relative binding affinity (RBA) in assay [2] was determined as 0.04.

On to `Oc1c(Br)cc(/C=C/c2c(Br)cccc2Br)cc1Br`, for which the inhibition in assay [1] was determined as 35%. Moreover, the relative binding affinity (RBA) in assay [2] is 0.35.

As to `Cc1cc(C)cc(-c2cccc3oc4ccccc4c23)c1`, the inhibition in assay [1] was 2%. The relative binding affinity (RBA) in assay [2] is 0.02.

`COc1cccc(CCc2cc(Br)c(O)c(Br)c2)c1` showed an inhibition in assay [1] of 5%. Moreover, the relative binding affinity (RBA) in assay [2] was 0.05.

Take `Cc1cccc(/C=C/c2cc(Br)c(O)c(Br)c2)c1`: the inhibition in assay [1] turned out to be 35%. For the same compound, the relative binding affinity (RBA) in assay [2] turned out to be 0.35.

Regarding `Nc1ccc(CCc2cc(Br)c(O)c(Br)c2)cc1`, the inhibition in assay [1] is 0%. In addition, in assay [2], the relative binding affinity (RBA) came to 0.

The compound `Cc1cc(C)cc(/C=C/c2cc(Br)c(O)c(Br)c2)c1` yielded an inhibition in assay [1] of 20%. Also, the relative binding affinity (RBA) in assay [2] is 0.2.

In the case of `Oc1c(Br)cc(-c2cccc3oc4ccccc4c23)cc1Br`, the inhibition in assay [1] turned out to be 36%. Moreover, in assay [2], the relative binding affinity (RBA) was 0.36.

`O=[N+]([O-])c1ccccc1S(=O)(=O)Nc1cc(Cl)c(O)c(Cl)c1` displayed an inhibition in assay [1] of 7%. Also, the relative binding affinity (RBA) in assay [2] was 0.07.

`O=[N+]([O-])c1ccccc1CCc1cc(Br)c(O)c(Br)c1` showed an inhibition in assay [1] of 3%. The relative binding affinity (RBA) in assay [2] worked out at 0.03.

For `Nc1cccc(CCc2cc(Br)c(O)c(Br)c2)c1`, the inhibition in assay [1] amounted to 0%. Moreover, the relative binding affinity (RBA) in assay [2] is 0.

In assay [1], `Nc1ccc(/C=C/c2cc(Br)c(N)c(Br)c2)cc1` returned an inhibition of 0%. The relative binding affinity (RBA) in assay [2] is 0.

For `Oc1c(Br)cc(/C=C/c2cccc(I)c2)cc1Br`, the inhibition in assay [1] is 45%. Besides, the relative binding affinity (RBA) in assay [2] came to 0.45.

`O=[N+]([O-])c1ccccc1/C=C/c1cc(Br)c(O)c(Br)c1`: the inhibition in assay [1] was found to be 21%. In assay [2], the relative binding affinity (RBA) is 0.21.

`Clc1cccc(Cl)c1/C=C/c1cc(Br)cc(Br)c1` showed an inhibition in assay [1] of 13%. In assay [2], the relative binding affinity (RBA) was 0.13.

Regarding `Brc1cc(Br)cc(Oc2cccc3oc4ccccc4c23)c1`, the inhibition in assay [1] stood at 0%. For the same compound, the relative binding affinity (RBA) in assay [2] is 0.

`Oc1c(Br)cc(Oc2cccc3oc4ccccc4c23)cc1Br`: the inhibition in assay [1] was found to be 94%. Further, the relative binding affinity (RBA) in assay [2] is 0.94.

For the compound `Nc1cccc(/C=C/c2cc(Br)c(N)c(Br)c2)c1`, in assay [1], the inhibition is 3%. In addition, the relative binding affinity (RBA) in assay [2] stood at 0.03.

In assay [1], `COc1cccc(/C=C/c2cc(Br)c(N)c(Br)c2)c1` came in with an inhibition of 1%. Moreover, the relative binding affinity (RBA) in assay [2] is 0.01.

For the compound `Cc1cc(C)cc(Nc2cccc3oc4ccccc4c23)c1`, in assay [1], the inhibition amounted to 0%. The relative binding affinity (RBA) in assay [2] amounted to 0.

In assay [1], `O=[N+]([O-])c1ccccc1COc1cc(Br)cc(Br)c1` had an inhibition of 0%. Also, in assay [2], the relative binding affinity (RBA) was 0.

In turn, `Oc1c(Br)cc(CCc2ccccc2C(F)(F)F)cc1Br` returned an inhibition in assay [1] of 8%. In addition, the relative binding affinity (RBA) in assay [2] was 0.08.

In the case of `Cc1cccc(C)c1CCc1cc(Br)c(O)c(Br)c1`, the inhibition in assay [1] came out at 12%. Besides, in assay [2], the relative binding affinity (RBA) came out at 0.12.

For `Oc1c(Br)cc(CCc2c(F)cccc2F)cc1Br`, the inhibition in assay [1] came out at 61%. The relative binding affinity (RBA) in assay [2] worked out at 0.61.

As to `COc1ccc(/C=C/c2cc(Br)c(O)c(Br)c2)cc1`, in assay [1], the inhibition amounted to 16%. Besides, the relative binding affinity (RBA) in assay [2] came out at 0.16.

In assay [1], `O=C(O)c1ccc(C(=O)Nc2cc(Br)cc(Br)c2)cc1` registered an inhibition of 13%. Besides, the relative binding affinity (RBA) in assay [2] came to 0.13.

`Oc1ccc(/C=C/c2cc(Br)c(O)c(Br)c2)cc1` registered an inhibition in assay [1] of 50%. The relative binding affinity (RBA) in assay [2] came out at 0.5.

On to `Oc1c(Br)cc(/C=C/c2ccccc2I)cc1Br`, for which, in assay [1], the inhibition came out at 55%. Moreover, the relative binding affinity (RBA) in assay [2] turned out to be 0.55.

Take `Oc1c(Br)cc(/C=C/c2ccc(F)cc2)cc1Br`: in assay [1], the inhibition came out at 40%. Also, in assay [2], the relative binding affinity (RBA) stood at 0.4.

In assay [1], `Nc1ccc(/C=C/c2cc(Br)c(O)c(Br)c2)cc1` showed an inhibition of 0%. The relative binding affinity (RBA) in assay [2] turned out to be 0.

In assay [1], `Nc1cccc(/C=C/c2cc(Br)c(O)c(Br)c2)c1` came in with an inhibition of 0%. In addition, in assay [2], the relative binding affinity (RBA) is 0.

In assay [1], `COc1ccccc1NC(=O)Nc1cc(Br)c(O)c(Br)c1` yielded an inhibition of 14%. Besides, the relative binding affinity (RBA) in assay [2] turned out to be 0.14.

In the case of `Brc1cc(Br)cc(-c2cccc3oc4ccccc4c23)c1`, in assay [1], the inhibition was found to be 0%. For the same compound, the relative binding affinity (RBA) in assay [2] was found to be 0.

For `Oc1c(I)cc(-c2nc3cccc(Cl)c3o2)cc1I`, the inhibition in assay [1] came out at 92%. Besides, the relative binding affinity (RBA) in assay [2] worked out at 0.92.

`Oc1cc(O)cc(/C=C/c2cc(Br)c(O)c(Br)c2)c1`: the inhibition in assay [1] amounted to 66%. Also, the relative binding affinity (RBA) in assay [2] is 0.66.

With `Oc1c(Br)cc(NCc2ccccc2)cc1Br`, the inhibition in assay [1] is 2%. In addition, the relative binding affinity (RBA) in assay [2] came out at 0.02.

In the case of `Oc1c(Br)cc(CCc2c(Cl)cccc2Cl)cc1Br`, the inhibition in assay [1] was 45%. Moreover, the relative binding affinity (RBA) in assay [2] was determined as 0.45.

`Cc1cc(-c2cc(C)c(O)c(C)c2)cc(C)c1O` registered an inhibition in assay [1] of 11%. Also, in assay [2], the relative binding affinity (RBA) is 0.11.

For `Oc1c(Br)cc(/C=C/c2c(Cl)cccc2Cl)cc1Br`, the inhibition in assay [1] stood at 70%. In assay [2], the relative binding affinity (RBA) turned out to be 0.7.

Compound `Clc1cccc(Cl)c1COc1cc(Br)cc(Br)c1` showed an inhibition in assay [1] of 4%. Further, the relative binding affinity (RBA) in assay [2] was found to be 0.04.

In assay [1], `Oc1c(Br)cc(/C=C/c2ccccc2Br)cc1Br` displayed an inhibition of 69%. Moreover, in assay [2], the relative binding affinity (RBA) amounted to 0.69.

In assay [1], `Oc1c(I)cc(/C=C/c2c(Cl)cccc2Cl)cc1I` came in with an inhibition of 92%. Besides, the relative binding affinity (RBA) in assay [2] amounted to 0.92.

In assay [1], `Cc1cc(CCc2c(Cl)cccc2Cl)cc(C)c1O` came in with an inhibition of 40%. Further, in assay [2], the relative binding affinity (RBA) stood at 0.4.

Compound `Cc1cc(/C=C/c2c(Cl)cccc2Cl)cc(C)c1O` gave an inhibition in assay [1] of 41%. The relative binding affinity (RBA) in assay [2] is 0.41.
